From article PMC12239085, “Silver(I) Ions Bridging Oxadiazole-2-thione Derivatives with Mitochondriotropic Agents: A Promising Strategy for Potent Anticancer Chemotherapy” (Inorganic Chemistry, 2025)
Several values for one entry are separate records, joined by “and”; a condition that tells them apart may be missing. Equal entries are not always repeated. Where two headings read alike, the source gives them in different places.

Assays:
[1] = test system: MDA-MB-231 human breast adenocarcinoma cells (hormone-independent); experiment: SRB antiproliferative assay, MDA-MB-231; type: cell-based; details: 48 h incubation
Experimental: Stock solutions of compounds 1a–5a and 1–5 (0.01 M) in DMSO were freshly prepared and subsequently diluted with cell culture media to appropriate concentrations for various biological experiments. These included the assessment of cell viability using the SRB assay, micronucleus testing, cell morphology studies, cell cycle arrest, AO/EB staining, and mitochondrial membrane permeabilization tests. For CT-DNA binding studies, experiments were conducted in DMSO/buffer solutions. All biological experiments were performed in triplicate or more.
Stock solutions of 1a–5a and 1–5 (0.01 M) were dissolved in DMSO and subsequently diluted with cell culture medium to the desired concentrations (0.5–30 μM). MCF-7, MDA MB-231, and MRC-5 cells were plated in 96-well flat-bottom microplates at various densities: 6000, 8000, and 2000 cells per well, respectively. The cells were incubated for 24 h at 37 °C and then exposed to 1a–5a and 1–5 for 48 h. ,–
(§1) Cytotoxicity was evaluated using the SRB colorimetric assay at λ = 568 nm, with cell survival percentages calculated relative to the untreated control cells. Detailed information on the SRB assay procedure can be found in the previous publication. ,–

MCF-7 cells [2] = experiment: Cell cycle arrest, flow cytometry; type: cell-based, human; details: for cell population in sub-G1 phase / cell population in S phase / cell population in G0/G1 phase: MCF-7, IC50 values, 48 h; for cell population in sub-G1 phase: untreated 5.1%; for cell population in S phase: untreated 9.4%; for cell population in G0/G1 phase: untreated 38.8%
Experimental: The MCF-7 cells were seeded into a 24-well plate (70,000 cells per well) and cultured at 37 °C for 24 h. […] For each sample, 10,000 events were recorded. The resulting DNA histograms were drawn and quantified using the FlowJo software (version FlowJo X 10.0.7r2). This assay was performed as reported previously. ,–

[3] = test system: nontumorigenic human breast epithelial cell line (MCF-10A); experiment: SRB toxicity assay, MCF-10A; type: cell-based; details: 48 h incubation
Experimental: The toxicity of 1–5 was also evaluated against normal human fetal lung fibroblast (MRC-5) cells. Their IC50 values lie from 2.7 to 4.1 μM (Table ). The toxicity of these compounds was also evaluated against the nontumorigenic human breast epithelial cell line (MCF-10A), which is widely used as a model for normal human breast cells. They closely resemble normal human mammary epithelial cells in structure and are regulated by hormones and growth factors.
as §1

MRC-5 cells = experiment: In vitro micronucleus (MN) assay; type: cell-based, human; details: for Percentage of MN: IC50 values, control 2.9 ± 0.2
Experimental: MRC-5 cells were seeded at a density of 2 × 10^4 cells/well onto glass coverslips, which were placed in six-well plates containing 3 mL of cell culture medium and incubated for 24 h. […] After exposure, the coverslips were washed three times with PBS and treated with a hypotonic solution (75 mM KCl) for 10 min at room temperature. The hypotonized cells were fixed with at least three changes of a 1/3 acetic acid/methanol solution. Following fixation, the coverslips were washed with cold methanol containing 1% acetic acid. Acridine orange staining (50 μg/mL) was applied for 15 min at 37 °C, after which the coverslips were rinsed three times with PBS to remove any excess stain. The number of micronucleated cells per 1000 cells was then counted. ,– ,

MCF-7 cells [4] = experiment: Mitochondrial membrane permeabilization (MMP) assay; type: cell-based, human; details: MCF-7, IC50 values, 48 h
From the text: The assay relies on the fluorescence of a cationic hydrophobic dye, which accumulates in the mitochondrial membrane. Any quenching of the dye’s emitted fluorescence is attributed to the disruption of the mitochondrial membrane, resulting in the release of cytochrome C into the cytosol. ,− The percentage of fluorescence quenching in MCF-7 cells treated with compounds 1–5 is up to 20.7%, with the specific values being 20.0% (1), 20.7% (2), 2.9% (3), 5.1% (4), and 9.6% (5). […] Consequently, cell morphology, AO/EB staining, cell cycle arrest and MMP studies indicate that compounds 1–5 induce apoptosis in MCF-7 cells, primarily through direct or indirect interaction with DNA.
The MMP assay was conducted using the ″Mitochondria Membrane Potential Kit for Microplate Readers″ (MAK147), purchased from Sigma-Aldrich. MCF-7 cells were treated with 1–5 at their IC50 concentration. Fluorescence intensity was measured at an excitation wavelength of λex = 540 nm and an emission wavelength of λem = 590 nm. The experimental results included fluorescence intensities from the treated and untreated cell solutions. ,–

calf thymus (CT)-DNA = experiment: CT-DNA binding, UV absorption spectroscopy; details: for binding constant K b toward CT-DNA: UV absorbance at 300–310 nm, CT-DNA 10–100 μΜ; for percentage of hyperchromism: UV spectra of CT-DNA with gradual additions of complex
Experimental: In order to elucidate the mechanism of action of compounds 1–5 against MCF-7 cells, their interaction with CT-DNA was investigated using UV absorption and fluorescence spectroscopy. The UV absorption spectra of compounds 1–5 were recorded both in the presence and absence of CT-DNA (Figure S27). […] The calculated K b values for 1–5 are (10.5 ± 1.8) × 10^4 (1), (6.3 ± 0.6) × 10^4 (2), (11.3 ± 1.6) × 10^4 (3), (7.5 ± 1.0) × 10^4 (4) and (10.2 ± 1.1) × 10^4 (5) M^–1, respectively.
For the experiments of titration, UV spectra of CT-DNA in buffer solution in the absence and presence of 1–5 at r values of 0–0.13 (r = [complex]/[DNA], [DNA] = 10^–4 M) were recorded. ,− In order to determine the constant K b value, UV spectra of 1–5 in the absence and presence of CT-DNA at r values 1–0.1 ([complex] = 10 μM, [CT DNA] = 10–100 μM) were investigated.^24,26–30 The K b value is obtained from the ratio of the slope to the y-intercept in plots [DNA]/(εa–εf) versus [DNA] (e a = A obsd/[compound], e f = the extinction coefficient for the free compound). ,−

| Compound | IC50 [1] [µM] | Relative rate of MCF-7 cells in sub-G1 phase compared to untreated cells (MCF-7 cells [2]) | cell population in sub-G1 phase (MCF-7 cells [2]) [%] | cell population in S phase (MCF-7 cells [2]) [%] | IC50 [3] [µM] | Relative ratio of MN in respect to untreated cells (MRC-5 cells; 48 h) | Percentage of MN (MRC-5 cells; 48 h) [%] | percentage of fluorescence quenching (MMP) (MCF-7 cells [4]) [%] | binding constant K b toward CT-DNA (calf thymus (CT)-DNA) | percentage of hyperchromism (calf thymus (CT)-DNA) [%] | cell population in G0/G1 phase (MCF-7 cells [2]) [%] | Relative ratio of MN in respect to untreated cells (MRC-5 cells) [fold] | fold higher increase in MCF-7 sub-G1 population compared to the other compounds and cisplatin (MCF-7 cells [2]) [fold] |
| --- | --- | --- | --- | --- | --- | --- | --- | --- | --- | --- | --- | --- | --- |
| Clc1cccc(-c2nnc([S][Ag]([PH](c3ccccc3)(c3ccccc3)c3ccccc3)([PH](c3ccccc3)(c3ccccc3)c3ccccc3)[PH](c3ccccc3)(c3ccccc3)c3ccccc3)o2)c1 [compound 5] | 3.55 ± 0.19 | 8.1 | 41.1 | 48.3 | 16.1 | 2.3 and 2.34 | 6.8 ± 1.5 | 9.6 | 10.2 ± 1.1 × 10^4 M^–1 and 10.2 × 10^4 M^–1 | 1.2 | – | – | – |
| Fc1ccc(-c2nnc([S][Ag]([PH](c3ccccc3)(c3ccccc3)c3ccccc3)([PH](c3ccccc3)(c3ccccc3)c3ccccc3)[PH](c3ccccc3)(c3ccccc3)c3ccccc3)o2)cc1 [compound 3] | 2.52 ± 0.07 | 2.5 | 12.8 | – | 10.9 | 1.3 and 1.31 | 3.8 ± 0.2 | 2.9 | 11.3 ± 1.6 × 10^4 M^–1 and 11.3 × 10^4 M^–1 | 28.0 | 72.0 | 1.31 | – |
| Fc1ccccc1-c1nnc([S][Ag]([PH](c2ccccc2)(c2ccccc2)c2ccccc2)([PH](c2ccccc2)(c2ccccc2)c2ccccc2)[PH](c2ccccc2)(c2ccccc2)c2ccccc2)o1 [compound 2] | 3.9 ± 0.14 | 1.7 | 8.9 | – | 13.9 | 1.2 and 1.24 | 3.6 ± 0.5 | 20.7 | 6.3 ± 0.6 × 10^4 M^–1 | 7.6 | 76.9 | 1.24 | – |
| Clc1ccccc1-c1nnc([S][Ag]([PH](c2ccccc2)(c2ccccc2)c2ccccc2)([PH](c2ccccc2)(c2ccccc2)c2ccccc2)[PH](c2ccccc2)(c2ccccc2)c2ccccc2)o1 [compound 4] | 4.27 ± 0.15 | 2.6 | – | 26.5 | 16 | 1.7 and 1.69 | 4.9 ± 0.5 | 5.1 | 7.5 ± 1.0 × 10^4 M^–1 | 8.5 | – | 1.69 | 3 |
| c1ccc(-c2nnc([S][Ag]([PH](c3ccccc3)(c3ccccc3)c3ccccc3)([PH](c3ccccc3)(c3ccccc3)c3ccccc3)[PH](c3ccccc3)(c3ccccc3)c3ccccc3)o2)cc1 [compound 1] | 4.09 ± 0.17 | 2.8 | 14.5 | 15.4 | 10.6 | 1.4 and 1.38 | 4.0 ± 0.6 | 20.0 | 10.5 ± 1.8 × 10^4 M^–1 | 4.0 | – | 1.38 | – |
